We go through nine compounds from PubChem BioAssay (NCI).

Test systems include UACC-62 melanoma; NCI-H226 lung; SN12C renal; NCI/ADR-RES ovarian; SNB-75 CNS; OVCAR-4 ovarian; K-562 leukemia; A498 renal; SF-295 CNS; HCC-2998 colon; HOP-62 NSCLC; PC-3 prostate; TK-10 renal; SNB-19 CNS; SK-MEL-5 melanoma; DU-145 prostate; HOP-92 NSCLC.
Assay in all cases: DTP human tumour cell line panel, 48 h

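Dose response: 5 concentrations. Exposure: 48 h. Format: 96-well plates. Endpoint: linear interpolation; highest concentration if not reached. At the TGI there is no net growth.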 Some results are limits rather than exact numbers.

What is called TGI is the concentration at which net growth stops. `N=CN=CC(=S)O[C@@H]1C(=O)N2CCC[C@@]23CCCC[C@@H]13`: the TGI in the test with UACC-62 melanoma, with NCI-H226 lung, in the test on SN12C renal, in the test with NCI/ADR-RES ovarian, in the test with SNB-75 CNS and with OVCAR-4 ovarian was over 12.5 µM throughout. The TGI in the test with K-562 leukemia, in the test on A498 renal, in the test on SF-295 CNS, in the test with HCC-2998 colon, in the test on HOP-62 NSCLC and in the test with PC-3 prostate was over 12.5 µM throughout. Besides, the TGI in the test on TK-10 renal, in the test with SNB-19 CNS, in the test on SK-MEL-5 melanoma and in the test with DU-145 prostate was over 12.5 µM in each case.
Turning to `CC(=O)O[C@@]12CO[C@@H]1C[C@@H](O)[C@@]1(C)C(=O)[C@H](O)C3=C(C)[C@@H](OC(=O)[C@H](O)[C@@H](NC(=O)c4ccccc4)c4ccccc4)C[C@@](O)([C@@H](OC(=O)c4ccccc4)C12)C3(C)C` (stereo partly drawn), the TGI in the test with NCI-H226 lung was 81.9 µM; with SN12C renal it was over 100 µM; in the test with NCI/ADR-RES ovarian, 74.4 µM; in the test on SNB-75 CNS, 0.0815 µM; with OVCAR-4 ovarian, over 100 µM; in the test with K-562 leukemia, over 100 µM. In addition, the TGI in the test on A498 renal is over 100 µM; with SF-295 CNS, 8.52 µM; with HCC-2998 colon, 0.0705 µM; with HOP-62 NSCLC, over 69.7 µM; in the test on PC-3 prostate it was over 100 µM; in the test with TK-10 renal, over 72.5 µM. Further, the TGI with SNB-19 CNS and in the test with DU-145 prostate was over 100 µM throughout.
With `CCN(CC)C(=S)SC(C(=O)Nc1nnc(-c2ccccc2)o1)c1ccccc1` (stereo not drawn), the TGI is 74.7 µM in the test on NCI-H226 lung; 32.3 µM with SN12C renal; 41.1 µM with NCI/ADR-RES ovarian; over 100 µM with SNB-75 CNS; over 100 µM in the test on OVCAR-4 ovarian; over 100 µM in the test on K-562 leukemia. In addition, the TGI was 40.7 µM in the test with A498 renal; over 100 µM with SF-295 CNS; over 100 µM with HOP-62 NSCLC; 66.8 µM with PC-3 prostate; over 100 µM with TK-10 renal; over 100 µM in the test on SNB-19 CNS. The TGI came out at 28.8 µM with SK-MEL-5 melanoma and 57.8 µM with DU-145 prostate.
Consider `CC(=O)OCC1OC(O[C@@H]2C[C@H]3C(C)(C)[C@@H](OC(C)=O)CC[C@]3(C)[C@H]3CC[C@]45C[C@]4(CC[C@H]5[C@@H](C)C[C@@H](O)[C@H](O)C(C)(C)F)[C@@]32C)C(O)C(O)C1O` (stereo partly drawn), for which the TGI in the test on UACC-62 melanoma is over 100 µM; in the test on SN12C renal, 3.23 µM; with NCI/ADR-RES ovarian, 29.6 µM; in the test on HOP-92 NSCLC, 3.71 µM; in the test on OVCAR-4 ovarian, over 100 µM; in the test on A498 renal, 76.5 µM. Moreover, the TGI was over 100 µM in the test on SF-295 CNS; over 100 µM in the test on HCC-2998 colon; over 100 µM with HOP-62 NSCLC; 91.5 µM with PC-3 prostate; over 100 µM in the test on TK-10 renal; 3.1 µM in the test with SNB-19 CNS. Moreover, the TGI is 3.2 µM with SK-MEL-5 melanoma and over 100 µM with DU-145 prostate.
In the case of `O=C1NC(N2CCCCC2)=N/C1=C\c1ccc(Cl)cc1`, the TGI was over 100 µM in the test with UACC-62 melanoma; 96.1 µM in the test on NCI-H226 lung; over 100 µM in the test with SN12C renal; over 100 µM with NCI/ADR-RES ovarian; 85.5 µM in the test with HOP-92 NSCLC; over 100 µM with OVCAR-4 ovarian. Further, the TGI with SF-295 CNS is over 100 µM; in the test on HCC-2998 colon, 60.5 µM; in the test with HOP-62 NSCLC, over 100 µM; in the test with PC-3 prostate, over 100 µM; with TK-10 renal it was over 100 µM; in the test on SNB-19 CNS it was over 100 µM. Further, the TGI with SK-MEL-5 melanoma and in the test with DU-145 prostate was over 100 µM in each case.
Regarding `c1ccc(C(=NCCC2CNc3ccccc32)c2ccccc2)cc1` (stereo not drawn), the total growth inhibition concentration (TGI) with UACC-62 melanoma, with NCI/ADR-RES ovarian, with HOP-92 NSCLC, in the test with OVCAR-4 ovarian, with K-562 leukemia and in the test with A498 renal was over 100 µM in each case. Also, the TGI with SF-295 CNS, in the test on HCC-2998 colon, in the test on HOP-62 NSCLC, in the test on PC-3 prostate, with SNB-19 CNS and in the test with SK-MEL-5 melanoma was over 100 µM in each case. In the test on DU-145 prostate, this compound displayed a TGI of over 100 µM.
On to `ONC1=Nc2ccccc2C(=S)N2CSCC12` (stereo not drawn), for which the TGI in the test on UACC-62 melanoma, in the test with NCI-H226 lung, in the test on SN12C renal, in the test with NCI/ADR-RES ovarian, in the test with SNB-75 CNS and in the test on OVCAR-4 ovarian was over 100 µM throughout. The TGI with K-562 leukemia, in the test on A498 renal, with SF-295 CNS, in the test on HCC-2998 colon, in the test on HOP-62 NSCLC and with PC-3 prostate was over 100 µM throughout. Further, the TGI in the test with TK-10 renal was over 100 µM; in the test on SNB-19 CNS, over 100 µM; in the test with SK-MEL-5 melanoma it was 99.2 µM; with DU-145 prostate, over 100 µM.
For the compound `O=C1c2ccccc2C2C1C(c1ccccc1)C1(Cc3ccccc3C1=O)C2c1ccccc1` (stereo not drawn), the TGI in the test with UACC-62 melanoma, in the test with NCI-H226 lung, with SN12C renal, in the test on NCI/ADR-RES ovarian, in the test on HOP-92 NSCLC and with SNB-75 CNS was over 100 µM throughout. The TGI in the test on OVCAR-4 ovarian, in the test with K-562 leukemia, in the test on SF-295 CNS, in the test on HCC-2998 colon, in the test with HOP-62 NSCLC and in the test with PC-3 prostate was over 100 µM in each case. Also, the TGI in the test on TK-10 renal, in the test on SNB-19 CNS, in the test on SK-MEL-5 melanoma and in the test with DU-145 prostate was over 100 µM throughout.
As for `CC(C)(C)OC(=O)NCCNCCNc1ccccc1`, the TGI with UACC-62 melanoma, in the test with NCI-H226 lung, in the test on SN12C renal, in the test with NCI/ADR-RES ovarian, in the test with HOP-92 NSCLC and with SNB-75 CNS was over 100 µM each time. Moreover, the TGI in the test on OVCAR-4 ovarian, in the test with K-562 leukemia, in the test with SF-295 CNS, with HCC-2998 colon, in the test on HOP-62 NSCLC and in the test with PC-3 prostate was over 100 µM throughout. Also, the TGI in the test with TK-10 renal, with SNB-19 CNS, with SK-MEL-5 melanoma and in the test on DU-145 prostate was over 100 µM each time.
